Assay results: patent US8148100B2, “Mina53 assays” (ISIS Innovation Limited, priority 2005, dated 2012)

Assays:
Mina53(A26-V465) [1] = biological target: T1, Mina53(A26-V465) (Homo sapiens, UniProt Q8IUF8, A386T); assay: [14C] labelled 2-OG decarboxylation assay (uncoupled 2-OG turnover, 14CO2 release); type: biochemical; settings: for 2OG turnover: truncated Mina53 A26-V465 with Fe(II) and ascorbate, 16 nm 2-OG initially present, 37° C., 20 minutes; for inhibition of uncoupled 2-OG turnover by small molecules (in words): final concentration of 1 mM
T1 construct: A N-terminal truncation of Mina53 A26-V465 cloned into pNIC28-Bsa4 was supplied by the Structural Genomics Consortium Oxford; His-tag (polyhistidine, TEV-cleavable, from pNIC28-Bsa4) (N, cleaved yes); made in house; host or cells: E. coli BL21(DE3)
T1 sequence (Q8IUF8 26-465 A386T): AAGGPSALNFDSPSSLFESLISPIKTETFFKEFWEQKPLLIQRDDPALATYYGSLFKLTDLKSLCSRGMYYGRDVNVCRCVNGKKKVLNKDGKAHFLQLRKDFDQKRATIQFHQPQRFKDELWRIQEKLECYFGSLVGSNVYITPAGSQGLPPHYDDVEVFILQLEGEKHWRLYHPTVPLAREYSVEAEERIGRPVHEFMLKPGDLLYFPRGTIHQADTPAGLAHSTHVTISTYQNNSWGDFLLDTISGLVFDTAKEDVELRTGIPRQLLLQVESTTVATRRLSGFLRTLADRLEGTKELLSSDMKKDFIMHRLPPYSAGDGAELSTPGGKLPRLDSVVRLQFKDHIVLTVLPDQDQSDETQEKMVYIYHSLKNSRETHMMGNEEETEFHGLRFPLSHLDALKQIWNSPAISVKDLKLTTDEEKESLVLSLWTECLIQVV
Method: Once purified full-length His-Mina53 had been obtained it was tested for 2-OG oxygenase activity. A standard assay for this family of enzymes involves the use of [^14C] labelled 2-OG co-substrate. Upon reaction, the ^14C label is released as 14CO2 gas (old FIG. 2).
The ^14CO2 gas is then trapped using a strong base and quantified by liquid scintillation. The level of uncoupled turnover of 2-OG oxygenases can be increased by the use of a reducing agent, e.g. ascorbate. Many other assays for 2-OG oxygenases are well known, e.g. those based on oxygen consumption, succinate production or oxidation of the “prime substrate” (McNeill et al (2005) Anal. Biochem. 336, 125-31; Sabourin & Bieber (1982) J. Biol. Chem. 257, 7460-7; and Cunliffe et al. (1986) Biochem. J. 240, 617-9).
As noted above, many of the enzymes in the family catalyse the decarboxylation of 2-OG in the absence of a suitable prime substrate, albeit at a reduced rate. This activity is sometimes termed as uncoupled turnover. The protocol used for the 2-OG assay decarboxylation is based on the method used to measure [^14CO2] release by α-ketoisocaproate oxygenase (Sabourin & Bieber (1982) J. Biol. Chem. 257, 7460-7). Standard assay conditions consisted of a total volume of 100 μl, 50 mM Tris-HCl pH 7.5, 4 mM ascorbate, 160 μM 2OG (5% 1-[^14C]), 80 μM FeSO4.6H2O, 0.48 mg·ml^−1 catalase, 10 μM Mina53. Four stocks were made: (a) Mina53 (b) Fe(II) (c) ascorbate and, (d) all other reagents. Assays were started by mixing components (a) to (d). A tube containing 200 μl hyamine hydroxide was added and the vial sealed. The assays were incubated at 37° C. for 20 minutes then quenched with methanol (200 μl). Reaction tubes were then left on ice for 30 mins to collect [^14CO2] gas, before the hyamine hydroxide was removed and treated with scintillant solution for counting (Beckman, LS6500). Assays were performed in triplicate unless otherwise stated. When potential small molecule inhibitors were added, they were mixed to stock (d) to a final concentration of 1 mM in Tris 50 mM, pH 7.9 buffer. To investigate inhibition of Mina53 by metals other than Fe(II), NiCl2 and ZnCl2 were added separately to the assay mixture to a final concentration of 80 μM.
Using this [^14C] labelled 2-OG assay (16 nm of 2-OG was initially present in the assay mixture), the level of uncoupled turnover for Mina53 was measured under standard catalytic conditions (16 nm of 2-OG was initially present in the assay mixture), in the absence of Fe(II), in the absence of ascorbate and in the presence on N-oxalylglycine (NOG) a ubiquitous inhibitor for the 2-OG dependent non-haem Fe(II) oxygenases^16.

Mina53(A26-V465) [2] = biological target: T1, Mina53(A26-V465); assay: as above; type: biochemical; settings: His-Mina53, absence of prime substrate
[3] = final assay concentration of 80 μM

Row | Compound | relative inhibitory potency, Ni versus Zn (in words) (Mina53(A26-V465) [1]; [3]) | inhibition of uncoupled 2-OG turnover by small molecules (in words) (Mina53(A26-V465) [1]) | 2OG turnover (Mina53(A26-V465) [1]; small molecule added at 1 mM) [nm] | decarboxylation of 2-OG by His-Mina53 in the presence of inhibitor (in words) (Mina53(A26-V465) [2]) | inhibition of Mina53 mediated oxidation of 2OG by metals other than Fe(II) (in words) (Mina53(A26-V465) [1]; [3]) | 2OG turnover (Mina53(A26-V465) [1]; metal salt added at 80 μM) [nm]
1 | [Cl-].[Cl-].[Zn+2] [ZnCl2] | more potent inhibitor |  |  |  | inhibit 2OG turnover | 0.93 ± 0.17
2 | [Cl][Ni][Cl] [NiCl2] |  |  |  |  | inhibit 2OG turnover | 2 ± 0.23
3 | fumarate |  | inhibit uncoupled 2-OG turnover | 0.58 ± 0.09 |  |  | 
4 | CCC(=O)C1C(=O)CC(C(=O)O)CC1=O (stereo not shown) [Prohexadione, prohexadione] |  | inhibit uncoupled 2-OG turnover | 0.17 ± 0.12 |  |  | 

More lines, main results first:

Row | relative inhibitory potency, Ni versus Zn (in words) (Mina53(A26-V465) [1]; [3]) | inhibition of uncoupled 2-OG turnover by small molecules (in words) (Mina53(A26-V465) [1]) | 2OG turnover (Mina53(A26-V465) [1]; small molecule added at 1 mM) [nm] | decarboxylation of 2-OG by His-Mina53 in the presence of inhibitor (in words) (Mina53(A26-V465) [2]) | Compound | inhibition of Mina53 mediated oxidation of 2OG by metals other than Fe(II) (in words) (Mina53(A26-V465) [1]; [3]) | 2OG turnover (Mina53(A26-V465) [1]; metal salt added at 80 μM) [nm]
5 |  | inhibit uncoupled 2-OG turnover | 0.47 ± 0.12 | inhibited | O=C(O)CNC(=O)C(=O)O [NOG, N-oxalylglycine] |  | 
6 |  | did not significantly reduce it | 3.18 ± 0.03 |  | O=C(O)CNC(=O)c1nc(Cl)c2ccccc2c1O [BB231] |  | 
7 |  | did not significantly reduce it | 3.86 ± 0.05 |  | O=C(O)C(=O)NC(Cc1ccccc1)C(=O)O [NOFD, N-oxalyl D-phenylalaninie] |  | 
